Reference: US7560436B2, “Methods of treating gastrointestinal inflammation” (The Regents of the University of California, priority 2005, dated 2009)

Experiments:
[1] = test system: bone marrow-derived myeloid dendritic cells (MDC) from RAG−/− mice; assay: DNA-PK inhibitor on CpG-ODN-induced cytokine production in MDC; assay type: cell-based, mouse; conditions: various concentrations of NU7026, with or without CpG-ODN
Protocol: Since deletion of the kinase domain of DNA-PKcs is responsible for the SCID phenotype, the role of DNA-PK in TLR9-mediated type-I IFN induction was investigated. To do so, bone marrow-derived myeloid dendritic cells (MDC) from RAG^−/− mice were incubated with various concentrations of NU7026, a DNA-PK inhibitor (Calbiochem, San Diego, Calif.), with or without CpG-ODN. […] In contrast, the activation of NF-κB, MAPK, IRF-3 and IRF-7 were similar in these cells (FIG. 2B), indicating a specific signaling blockade downstream to TLR9 in SCID but not in RAG^−/− BM-MDC.

DSS-induced colitis = DSS-induced colitis in mice (disease activity index, colonic MPO activity, histological score, mortality); assay type: in vivo, mouse; conditions: for DAI (disease activity index) / HS (histological score) / MPO (U/g): 1.5% DSS
Source text: In a previous study the concentration of DSS was identified that was required to induce a similar severity of colitis in the different mouse strains used in this study (Rachmilewitz et al. (2004) Gastroenterology 126:520-528). Mice on the B6 background were given 1.5% (w/v) DSS, mice on the 129/SvEv background were given 4% DSS and mice on the Balb/c background were given 3.5% DSS dissolved in sterile, distilled water ad libitum for 7 days (Rachmilewitz et al. (2004) supra). […] The disease activity index (DAI; the combined score of weight loss and bleeding) was determined as described (Rachmilewitz et al. (2002) Gastroenterology 122:1428-144110; and Rachmilewitz et al. (2004) supra). Briefly, scores are defined as follows: Loss in body weight: 0=no loss; 1=5% to 10%; 2=10% to 15%; 3=15% to 20%; 4=over 20%. Hemoccult: 0=no blood; 2=positive; 4=gross blood.
The colon tissues were longitudinally opened and a 50 mg portion was homogenized in hexadecyltrimethyl-ammonium bromide (0.5%) in 50 mmol/L phosphate buffer, pH6.0. The homogenate was sonicated for 10 seconds, freeze-thawed 3 times, and centrifuged for 15 minutes. An aliquot of the supernatant was taken for determination of enzyme activity as described (Rachmilewitz et al. (2002) supra; and Rachmilewitz et al. (2004) supra).
After 7 days of DSS administration, mice were killed and the entire colon was excised, longitudinally opened, rolled onto a wooden stick, fixed with Bouin's Solution (Sigma, St. Louis, Mo.), and embedded in paraffin. Tissue sections (5 μm) were prepared, deparaffinized, and stained with hematoxylin and eosin. Histological scoring was performed in a blinded fashion. Colonic epithelial damage was scored as follows: 0=normal; 1=hyper-proliferation, irregular crypts, and goblet cell loss; 2=mild to moderate crypt loss (10-50%); 3=severe crypt loss (50-90%); 4=complete crypt loss, surface epithelium intact; 5=small to medium sized ulcer (<10 crypt widths); 6=large ulcer (≧10 crypt widths). Infiltration with inflammatory cells was scored separately for mucosa (0=normal, 1=mild, 2=modest, 3=severe), submucosa (0=normal, 1=mild to modest, 2=severe), and muscle/serosa (0=normal, 1=moderate to severe). Scores for epithelial damage and inflammatory cell infiltration were added, resulting in a total scoring range of 0-12.

[2] = RAG1−/− mice (B6), ODN 10 μg/animal s.c. once 2 h prior, day 7, mean±SEM
[3] = SCID mice (B6), ODN 10 μg/animal s.c. once 2 h prior, day 7, mean±SEM
[4] = Table 6: SCID mice (B6), 1000 U recombinant mIFN-β i.p. prior to and on days 2, 4, 6, day 7, mean±SEM

O=c1cc(N2CCOCC2)oc2c1ccc1ccccc12 [NU7026]
IFN-α/β production induced by CpG-ODN [1]: selectively inhibited IFN-α/β | IL-12 (p40) production induced by CpG-ODN [1]: without affecting IL-12 (p40) production

CpG-ODN-2: phosphodiester and phosphothioate-modified class A CpG-ODN, 5′-Ggtgcatcgatgca GGGGGg-3′; SEQ ID NO:05 (GGTGCATCGATGCAGGGGGG; DNA, linkages s1 o13 s5 (s phosphorothioate, o phosphodiester), methylation of C not given here)
DAI (disease activity index) (DSS-induced colitis; [2]): 1.9 ± 0.7^A | HS (histological score) (DSS-induced colitis; [2]): 5.0 ± 0.8^A | MPO (U/g) (DSS-induced colitis; [2]): 0.9 ± 0.2^A U/g | DAI (disease activity index) (DSS-induced colitis; [3]): 6.5 ± 0.6 | HS (histological score) (DSS-induced colitis; [3]): 9.8 ± 0.3 | MPO (U/g) (DSS-induced colitis; [3]): 1.3 ± 0.1 U/g

IFN-β: recombinant murine IFN-β from Chemicon International
disease activity and histological scores (in words) (DSS-induced colitis; DSS-treated SCID mice, recombinant mIFN-β): decreased the disease activity and the histological scores | DAI (disease activity index) (DSS-induced colitis; [4]): 4.6 ± 0.9^A | HS (histological score) (DSS-induced colitis; [4]): 6.8 ± 1.2^A | MPO (U/g) (DSS-induced colitis; [4]): 1.2 ± 0.1 U/g
